US20240025919A1, “AZA-TETRACYCLIC OXAZEPINE COMPOUNDS AND USES THEREOF” (Genentech, Inc., priority 2022, published 2024)
Blank lines part the entries; values can stand above or below the compound they belong to.

Legend:
KRAS WT = KRAS WT (Homo sapiens (Human), UniProt P01116); test: KRAS WT Biochemical Assay, BODIPY-GDP Exchange TR-FRET (Example 502; 0.06 nM KRAS WT, 15 nM GDP, 300 nM SOS1, 120-minute incubation); settings: read-out: KRas HTRF IC50
Experimental: Example 502: KRAS WT Biochemical Assay, BODIPY-GDP Exchange TR-FRET. Biochemical compound potencies are assessed by evaluating inhibition of SOS1-mediated nucleotide exchange in KRAS WT. In this assay, the SOS1-promoted exchange of fluorescently-labeled GDP (BOPIDY-GDP) is monitored by time-resolved fluorescence resonance energy transfer (TR-FRET). Compounds solubilized in DMSO are dispensed as concentration series into 384-well white assay plates. A preformed complex of 0.06 nM biotin-tagged recombinant human KRAS WT, 15 nM GDP and 0.06 nM terbium-labeled streptavidin (CisBIO) prepared in 10 uL/well assay buffer (20 mM HEPES, pH 7.5, 50 mM NaCl, 10 mM MgCl2, 0.01% Tween-20 and 1 mM dithiothreitol) is added and allowed to incubate for 10-minutes at room temperature. The reaction is initiated with the addition of 5 uL 300 nM recombinant human SOS1 and 300 nM BODIPY-GDP in assay buffer. After a 120-minute incubation, the fluorescence is measured with excitation at 337 nm and emission at 490 and 520 nm. The TR-FRET ratio is determined as the fluorescence at 520 nm divided by the fluorescence at 490 nm multiplied by 10,000. The results are normalized to percent inhibition based on control samples: DMSO (0% inhibition) and control compound at a concentration that inhibits completely (100% inhibition). The normalized TR-FRET results are plotted against compound concentration, and the data are fit to a 4-parameter Hill equation to determine the IC50 values.

KRAS G12D = KRAS G12D (Homo sapiens (Human), UniProt P01116, G12D); test: KRAS G12D LoEnz Biochemical Assay, BODIPY-GDP Exchange TR-FRET (SOS1-mediated nucleotide exchange); settings: read-out: KRas (G12D) GDP HTRF IC50
Sequence of KRAS G12D (P01116-2 other isoform, or with tags, fused parts or gaps G12D): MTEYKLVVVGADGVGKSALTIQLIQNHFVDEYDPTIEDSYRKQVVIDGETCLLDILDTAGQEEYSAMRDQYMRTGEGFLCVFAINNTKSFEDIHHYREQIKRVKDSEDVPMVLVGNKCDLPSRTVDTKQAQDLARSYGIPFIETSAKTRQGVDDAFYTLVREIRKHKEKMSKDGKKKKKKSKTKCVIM

Sequence of KRAS WT (P01116-2 other isoform, or with tags, fused parts or gaps): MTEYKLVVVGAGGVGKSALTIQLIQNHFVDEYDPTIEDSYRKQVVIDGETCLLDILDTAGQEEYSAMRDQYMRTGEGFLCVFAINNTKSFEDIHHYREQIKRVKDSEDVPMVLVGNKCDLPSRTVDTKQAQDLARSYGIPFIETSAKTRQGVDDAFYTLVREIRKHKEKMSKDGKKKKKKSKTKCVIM

SMILES: Cc1c(F)c(N)cc(-c2nc3c4c(nc(OC[C@H]5C[C@@H]6COCCN65)nc4c2F)N2C[C@H]4CC[C@H](N4)[C@H]2[C@H](C)O3)c1C(F)(F)F (mixture of isomers) [159 (mixture), 5-((5S,5aS,6S,9R)-12-((4-Oxa-1-azabicyclo[4.2.0]octan-8-yl)methoxy)-1-fluoro-5-methyl-5a,6,7,8,9,10-hexahydro-5H-4-oxa-3,10a,11,13,14-pentaaza-6,9-methanonaphtho[1,8-ab]heptalen-2-yl)-2-fluoro-3-methyl-4-(trifluoromethyl)aniline]
- IC50 (KRAS WT): 45.2 nM
- IC50 (KRAS G12D): 0.23 nM

SMILES: Cc1c(F)c(N)cc(-c2nc3c4c(nc(OCC5CCC6CN(C)C(=O)CN56)nc4c2F)N2C[C@H]4CC[C@H](N4)[C@H]2[C@H](C)O3)c1C(F)(F)F (mixture of isomers) [Compound 124, 6-((((5S,5aS,6S,9R)-2-(5-Amino-4-fluoro-3-methyl-2-(trifluoromethyl)phenyl)-1-fluoro-5-methyl-5a,6,7,8,9,10-hexahydro-5H-4-oxa-3,10a,11,13,14-pentaaza-6,9-methanonaphtho[1,8-ab]heptalen-12-yl)oxy)methyl)-2-methylhexahydropyrrolo[1,2-a]pyrazin-3(4H)-one]
- IC50 (KRAS WT): 619 nM
- IC50 (KRAS G12D): 1.74 nM

SMILES: Cc1c(F)c(N)cc(-c2nc3c4c(nc(OC[C@@H]5CC[C@@H]6CC(F)(F)CCN65)nc4c2F)N2C[C@H]4CC[C@H](N4)[C@H]2[C@H](C)O3)c1C(F)(F)F (single isomer, unassigned) [119 (isomer 1)]
- IC50 (KRAS WT): 787 nM
- IC50 (KRAS G12D): 4.38 nM

- IC50 (KRAS WT): 75 nM
SMILES: Cc1c(F)c(N)cc(-c2nc3c4c(nc(OC[C@@H]5CCC6CC(F)(F)CCN65)nc4c2F)N2C[C@H]4CC[C@H](N4)[C@H]2[C@H](C)O3)c1C(F)(F)F (single isomer, unassigned) [119 (isomer 2)]
- IC50 (KRAS G12D): 0.37 nM

SMILES: Cc1c(F)c(N)cc(-c2nc3c4c(nc(OC[C@@]5(CCF)CCCN5C)nc4c2F)N2C[C@H]4CC[C@H](N4)[C@H]2[C@H](C)O3)c1C(F)(F)F (single isomer, unassigned) [127 (isomer 1)]
- IC50 (KRAS WT): 17.9 nM
- IC50 (KRAS G12D): 0.14 nM

SMILES: Cc1c(F)c(N)cc(-c2nc3c4c(nc(OC[C@]5(CCF)CCCN5C)nc4c2F)N2C[C@H]4CC[C@H](N4)[C@H]2[C@H](C)O3)c1C(F)(F)F (single isomer, unassigned) [127 (isomer 2)]
- IC50 (KRAS WT): 37.7 nM
- IC50 (KRAS G12D): 0.19 nM

SMILES: Cc1c(F)c(N)cc(-c2nc3c4c(nc(OC[C@@H]5CC[C@@H]6C[C@@H](C(=O)N(C)C)CCN65)nc4c2F)N2C[C@H]4CC[C@H](N4)[C@H]2[C@H](C)O3)c1C(F)(F)F (single isomer, unassigned) [133 (isomer 1)]
- IC50 (KRAS WT): 13.6 nM
- IC50 (KRAS G12D): 0.12 nM

- IC50 (KRAS WT): 23.3 nM
SMILES: Cc1c(F)c(N)cc(-c2nc3c4c(nc(OC[C@@H]5CC[C@@H]6CC(C(=O)N(C)C)CCN65)nc4c2F)N2C[C@H]4CC[C@H](N4)[C@H]2[C@H](C)O3)c1C(F)(F)F (single isomer, unassigned) [133 (isomer 3)]
- IC50 (KRAS G12D): 0.14 nM

SMILES: Cc1c(F)c(N)cc(-c2nc3c4c(nc(OC[C@@H]5CC[C@H]6C[C@H](C(=O)N(C)C)CCN56)nc4c2F)N2C[C@H]4CC[C@H](N4)[C@H]2[C@H](C)O3)c1C(F)(F)F (single isomer, unassigned) [133 (isomer 4)]
- IC50 (KRAS WT): 2.3 nM
- IC50 (KRAS G12D): 0.08 nM

SMILES: Cc1c(F)c(N)cc(-c2nc3c4c(nc(OC[C@]56COC[C@H]5CCN6C)nc4c2F)N2C[C@H]4CC[C@H](N4)[C@H]2[C@H](C)O3)c1C(F)(F)F (single isomer, unassigned) [134 (isomer 1)]
- IC50 (KRAS WT): 39.4 nM
- IC50 (KRAS G12D): 0.19 nM

- IC50 (KRAS WT): 38.1 nM
SMILES: Cc1c(F)c(N)cc(-c2nc3c4c(nc(OC[C@]56COC[C@@H]5CCN6C)nc4c2F)N2C[C@H]4CC[C@H](N4)[C@H]2[C@H](C)O3)c1C(F)(F)F (single isomer, unassigned) [134 (isomer 2)]
- IC50 (KRAS G12D): 0.19 nM

SMILES: Cc1c(F)c(N)cc(-c2nc3c4c(nc(OC[C@@]56CCCN5CCN(C)C6=O)nc4c2F)N2C[C@H]4CC[C@H](N4)[C@H]2[C@H](C)O3)c1C(F)(F)F (single isomer, unassigned) [137 (isomer 1)]
- IC50 (KRAS WT): 283 nM
- IC50 (KRAS G12D): 2.31 nM

SMILES: Cc1c(F)c(N)cc(-c2nc3c4c(nc(OC[C@]56CCCN5C[C@H](F)[C@@H]6F)nc4c2F)N2C[C@H]4CC[C@H](N4)[C@H]2[C@H](C)O3)c1C(F)(F)F (single isomer, unassigned) [143 (isomer 1)]
- IC50 (KRAS WT): 28.1 nM
- IC50 (KRAS G12D): 0.22 nM

SMILES: Cc1c(F)c(N)cc(-c2nc3c4c(nc(OC[C@@]5(CC(F)F)CCCN5C)nc4c2F)N2C[C@H]4CC[C@H](N4)[C@H]2[C@H](C)O3)c1C(F)(F)F (single isomer, unassigned) [150 (isomer 1)]
- IC50 (KRAS WT): 27.5 nM
- IC50 (KRAS G12D): 0.18 nM

SMILES: Cc1c(F)c(N)cc(-c2nc3c4c(nc(OC[C@]5(CC(F)F)CCCN5C)nc4c2F)N2C[C@H]4CC[C@H](N4)[C@H]2[C@H](C)O3)c1C(F)(F)F (single isomer, unassigned) [150 (isomer 2)]
- IC50 (KRAS WT): 64.5 nM
- IC50 (KRAS G12D): 0.25 nM

SMILES: Cc1c(F)c(N)cc(-c2nc3c4c(nc(OC[C@@H]5CC[C@H]6C[C@@H](F)CN56)nc4c2F)N2C[C@H]4CC[C@H](N4)[C@H]2[C@H](C)O3)c1C(F)(F)F (single isomer, unassigned) [152 (isomer 1)]
- IC50 (KRAS WT): 15.7 nM
- IC50 (KRAS G12D): 0.1 nM

SMILES: Cc1c(F)c(N)cc(-c2nc3c4c(nc(OC[C@@H]5CC[C@@H]6C[C@@H](F)CN65)nc4c2F)N2C[C@H]4CC[C@H](N4)[C@H]2[C@H](C)O3)c1C(F)(F)F (single isomer, unassigned) [152 (isomer 2)]
- IC50 (KRAS WT): 526 nM
- IC50 (KRAS G12D): 3.23 nM

SMILES: C=C1CN2CCC[C@@]2(COc2nc3c4c(nc(-c5cc(N)c(F)c(C)c5C(F)(F)F)c(F)c4n2)O[C@@H](C)[C@@H]2[C@@H]4CC[C@H](CN32)N4)C1 [Compound 57, 2-Fluoro-5-((5S,5aS,6S,9R)-1-fluoro-5-methyl-12-(((S)-2-methylenetetrahydro-1H-pyrrolizin-7a(5H)-yl)methoxy)-5a,6,7,8,9,10-hexahydro-5H-4-oxa-3,10a,11,13,14-pentaaza-6,9-methanonaphtho[1,8-ab]heptalen-2-yl)-3-methyl-4-(trifluoromethyl) aniline]
- IC50 (KRAS WT): 0.633 nM
- IC50 (KRAS G12D): 0.16 nM

SMILES: Cc1c(F)c(N)cc(-c2nc3c4c(nc(OC[C@@]56CCCN5C[C@H](F)C6)nc4c2F)N2C[C@H]4CC[C@H](N4)[C@H]2[C@H](C)O3)c1C=O [Compound 59, 4-Amino-3-fluoro-6-((5S,5aS,6S,9R)-1-fluoro-12-(((2R,7aS)-2-fluorotetrahydro-1H-pyrrolizin-7a(5H)-yl)methoxy)-5-methyl-5a,6,7,8,9,10-hexahydro-5H-4-oxa-3,10a,11,13,14-pentaaza-6,9-methanonaphtho[1,8-ab]heptalen-2-yl)-2-methylbenzaldehyde]
- IC50 (KRAS WT): 51.4 nM
- IC50 (KRAS G12D): 0.31 nM

SMILES: Cc1cc(N)cc(-c2nc3c4c(nc(OC[C@]56CCN5CC(F)(F)C6)nc4c2F)N2C[C@H]4CC[C@H](N4)[C@H]2[C@H](C)O3)c1C(F)(F)F [Compound 60, 3-((5S,5aS,6S,9R)-12-(((R)-3,3-Difluoro-1-azabicyclo[3.2.0]heptan-5-yl)methoxy)-1-fluoro-5-methyl-5a,6,7,8,9,10-hexahydro-5H-4-oxa-3,10a,11,13,14-pentaaza-6,9-methanonaphtho[1,8-ab]heptalen-2-yl)-5-methyl-4-(trifluoromethyl)aniline]
- IC50 (KRAS WT): 4.55 nM
- IC50 (KRAS G12D): 0.18 nM

SMILES: Cc1c(F)c(N)cc(-c2nc3c4c(nc(OC[C@@]56CCCN5C[C@H](F)C6)nc4c2F)N2C[C@H]4CC[C@H](N4)[C@H]2CO3)c1C(F)(F)F [Compound 61, 2-Fluoro-5-((5aS,6S,9R)-1-fluoro-12-(((2R,7aS)-2-fluorotetrahydro-1H-pyrrolizin-7a(5H)-yl)methoxy)-5a,6,7,8,9,10-hexahydro-5H-4-oxa-3,10a,11,13,14-pentaaza-6,9-methanonaphtho[1,8-ab]heptalen-2-yl)-3-methyl-4-(trifluoromethyl)aniline]
- IC50 (KRAS WT): 30.5 nM
- IC50 (KRAS G12D): 0.21 nM

SMILES: Cc1c(F)c(N)cc(-c2nc3c4c(nc(OC[C@@]56CCCN5CC5(CC5(F)F)C6)nc4c2F)N2C[C@H]4CC[C@H](N4)[C@H]2[C@H](C)O3)c1C(F)(F)F (stereo partly drawn) [Compound 62, 5-((5S,5aS,6S,9R)-12-(((7a'S)-2,2-Difluorodihydro-1′H,3′H-spiro[cyclopropane-1,2′-pyrrolizin]-7a′(5′H)-yl)methoxy)-1-fluoro-5-methyl-5a,6,7,8,9,10-hexahydro-5H-4-oxa-3,10a,11,13,14-pentaaza[6,9]methanonaphtho[1,8-ab]heptalen-2-yl)-2-fluoro-3-methyl-4-(trifluoromethyl)aniline]
- IC50 (KRAS WT): 0.29 nM
- IC50 (KRAS G12D): 0.083 nM

SMILES: C[C@@H]1Oc2nc(-c3cc(N)c(F)c(F)c3CC(F)F)c(F)c3cc(OC[C@@H]4CC[C@H]5COCCN54)nc(c23)N2C[C@H]3CC[C@H](N3)[C@@H]12 [Compound 158, 4-(2,2-Difluoroethyl)-2,3-difluoro-5-((5S,5aS,6S,9R)-1-fluoro-13-(((6S,8aS)-hexahydro-1H-pyrrolo[2,1-c][1,4]oxazin-6-yl)methoxy)-5-methyl-5a,6,7,8,9,10-hexahydro-5H-6,9-epiminoazepino[2′,1′:3,4][1,4]oxazepino[5,6,7-ij][2,7-]naphthyridin-2-yl)aniline]
- IC50 (KRAS WT): 121 nM
